# Patent US9365571B2, “Piperidino-pyrimidine derivatives for the treatment of viral infections” (Janssen Sciences Ireland UC, priority 2012, dated 2016)
# How the values were obtained:
# Format in all cases: cell-based
# [1] = tested on: human TLR8; experiment: TLR8 cellular NFκB-luc reporter assay in transiently transfected HEK293 cells; conditions: lowest effective concentration, 6 hours incubation
# Description: (§1) The ability of compounds to activate human TLR7 and/or TLR8 was assessed in a cellular reporter assay using HEK293 cells transiently transfected with a TLR7 or TLR8 expression vector and NFκB-luc reporter construct. In one instance the TLR expression construct expresses the respective wild type sequence or a mutant sequence comprising a deletion in the second leucine-rich repeat of the TLR.
# (§2) Briefly, HEK293 cells were grown in culture medium (DMEM supplemented with 10% FCS and 2 mM Glutamine). For transfection of cells in 10 cm dishes, cells were detached with Trypsin-EDTA, transfected with a mix of CMV-TLR7 or TLR8 plasmid (750 ng), NFκB-luc plasmid (375 ng) and a transfection reagent and incubated overnight at 37° C. in a humidified 5% CO2 atmosphere. Transfected cells were then detached with Trypsin-EDTA, washed in PBS and resuspended in medium to a density of 1.67×10^5 cells/mL. Thirty microliters of cells were then dispensed into each well in 384-well plates, where 10 μL of compound in 4% DMSO was already present. Following 6 hours incubation at 37° C., 5% CO2, the luciferase activity was determined by adding 15 μl of Steady Lite Plus substrate (Perkin Elmer) to each well and readout performed on a ViewLux ultraHTS microplate imager (Perkin Elmer). Dose response curves were generated from measurements performed in quadruplicates. Lowest effective concentrations (LEC) values, defined as the concentration that induces an effect which is at least two fold above the standard deviation of the assay, were determined for each compound.
# [2] = tested on: human TLR7; experiment: TLR7 cellular NFκB-luc reporter assay in transiently transfected HEK293 cells; conditions: lowest effective concentration, 6 hours incubation
# Description: as §1, §2
# [3] = tested on: PBMC-IFNa; experiment: PBMC-IFNa; conditions: Table IIC; lowest effective concentration; read-out: PBMC-IFNa (LEC)
Structure (SMILES),"Human TLR8 (LEC, μM) ([1]; Table II A)","Human TLR7 (LEC, μM) ([2]; Table II A)",further results
CCCCNc1nc(N)nc2c1CN(C(=O)C1CCC1)CC2 [Compound 1],,,"Human TLR8 (LEC, μM) ([1]; Table II B): 0.32 µM; Human TLR7 (LEC, μM) ([2]; Table II B): 0.83 µM"
CCCCNc1nc(N)nc2c1CCN(C(=O)c1ccccc1)C2 [Compound 2],0.75 µM,3.96 µM,
CCCCNc1nc(N)nc2c1CCN(C(=O)c1cccn1C)C2 [Compound 3],0.60 µM,0.79 µM,
CCCCNc1nc(N)nc2c1CCN(C(=O)C1CC1)C2 [Compound 4],0.47 µM,6.82 µM,
CCCCNc1nc(N)nc2c1CN(C(C)=O)CC2 [Compound 5],,,"Human TLR8 (LEC, μM) ([1]; Table II B): 0.50 µM; Human TLR7 (LEC, μM) ([2]; Table II B): 4.90 µM"
CCCCNc1nc(N)nc2c1CN(C(=O)Cc1cccs1)CC2 [Compound 6],,,"Human TLR8 (LEC, μM) ([1]; Table II B): 0.88 µM; Human TLR7 (LEC, μM) ([2]; Table II B): 3.45 µM"
CCCCNc1nc(N)nc2c1CN(C(=O)C(C)C)CC2 [Compound 7],,,"Human TLR8 (LEC, μM) ([1]; Table II B): 1.62 µM; Human TLR7 (LEC, μM) ([2]; Table II B): 8.13 µM"
CCCCNc1nc(N)nc2c1CN(C(=O)CC)CC2 [Compound 8],,,"Human TLR8 (LEC, μM) ([1]; Table II B): 0.40 µM; Human TLR7 (LEC, μM) ([2]; Table II B): 2.34 µM"
CCCCNc1nc(N)nc2c1CCN(C(=O)Cc1cccs1)C2 [Compound 9],0.46 µM,1.60 µM,
CCCCNc1nc(N)nc2c1CCN(C(=O)c1cc(C)n(C)n1)C2 [Compound 10],0.71 µM,2.04 µM,
CCCCNc1nc(N)nc2c1CCN(C(=O)C1CCC1)C2 [Compound 11],0.51 µM,2.10 µM,
CCCCNc1nc(N)nc2c1CCN(C(=O)c1cccs1)C2 [Compound 12],0.36 µM,2.40 µM,
CCCCNc1nc(N)nc2c1CCN(C(=O)C(C)C)C2 [Compound 13],0.85 µM,3.21 µM,
CCCCNc1nc(N)nc2c1CCN(C(=O)c1cscn1)C2 [Compound 14],0.90 µM,4.43 µM,
CCCCNc1nc(N)nc2c1CCN(C(=O)c1csc(N)n1)C2 [Compound 15],1.31 µM,4.66 µM,
CCCCNc1nc(N)nc2c1CCN(C(=O)COC)C2 [Compound 16],1.49 µM,5.37 µM,
CCCCNc1nc(N)nc2c1CCN(C(C)=O)C2 [Compound 17],0.43 µM,5.82 µM,
CCCCNc1nc(N)nc2c1CCN(C(=O)c1nccn1C)C2 [Compound 18],0.96 µM,6.16 µM,
CCCCNc1nc(N)nc2c1CCN(C(=O)c1ccccn1)C2 [Compound 19],0.83 µM,6.59 µM,
CCCCNc1nc(N)nc2c1CCN(C(=O)c1sccc1Cl)C2 [Compound 20],0.68 µM,7.15 µM,
CCCCNc1nc(N)nc2c1CCN(C(=O)c1ccsc1)C2 [Compound 21],1.85 µM,8.13 µM,
CCCCNc1nc(N)nc2c1CCN(C(=O)c1cnccn1)C2 [Compound 22],1.37 µM,9.35 µM,
CCCCNc1nc(N)nc2c1CCN(C(=O)CC#N)C2 [Compound 23],2.67 µM,11.62 µM,
CCCCNc1nc(N)nc2c1CCN(C(=O)CC(F)(F)F)C2 [Compound 24],2.29 µM,12.93 µM,
CCCCNc1nc(N)nc2c1CCN(C(=O)[C@@H](N)C(C)C)C2 [Compound 25],,,"minimal effective concentration [3]: 1.1 µM; Human TLR8 (LEC, μM) ([1]; Table IIC): 1.8 µM; Human TLR7 (LEC, μM) ([2]; Table IIC): 20.0 µM"
CCCCNc1nc(N)nc2c1CCN(C(=O)[C@H](C)N)C2 [Compound 26],,,"minimal effective concentration [3]: 0.6 µM; Human TLR8 (LEC, μM) ([1]; Table IIC): 2.1 µM; Human TLR7 (LEC, μM) ([2]; Table IIC): 16.8 µM"
